Results reported in ChEMBL document CHEMBL3774389, “C-3 benzoic acid derivatives of C-3 deoxybetulinic acid and deoxybetulin as HIV-1 maturation inhibitors” (Bioorg Med Chem, 2016).

What was measured:
[1] = Cytotoxicity against human MT2 cells assessed as cell viability by redox dye assay; assay type: cell-based
[2] = system: Human immunodeficiency virus 1; experiment: Antiviral activity against HIV1 containing gag V370A mutant infected in human MT2 cells after 4 to 5 days by luciferase report gene based multiple cycle drug susceptibility assay; assay type: functional, organism-based; details: Human immunodeficiency virus 1, MT2
[3] = system: Human immunodeficiency virus 1; experiment: Antiviral activity against wild type HIV1 NLRepRlucP373S infected in human MT2 cells after 4 to 5 days by luciferase report gene based multiple cycle drug susceptibility assay; assay type: functional, organism-based; details: Human immunodeficiency virus 1, NLRepRlucP373S
[4] = system: Human immunodeficiency virus 1; experiment: Antiviral activity against wild type HIV1 NLRepRlucP373S infected in human MT2 cells after 4 to 5 days in presence of 15 mg/ml HSA by luciferase report gene based multiple cycle drug susceptibility assay; assay type: functional, organism-based; details: Human immunodeficiency virus 1, NLRepRlucP373S
[5] = system: Human immunodeficiency virus 1; experiment: Ratio of EC50 for HIV1 NLRepRlucP373S infected in human MT2 cells in presence of HSA to EC50 for HIV1 NLRepRlucP373S infected in human MT2 cells in absence of HSA; assay type: functional

Row | Structure (SMILES) | CC50 [1] | EC50 [2] | EC50 [3] | EC50 [4] | Ratio EC50 [5]
1 | C=C(C)[C@@H]1CC[C@]2(C(=O)O)CC[C@]3(C)[C@H](CC[C@@H]4[C@@]5(C)CC=C(c6ccc(C(=O)O)s6)C(C)(C)[C@@H]5CC[C@]43C)[C@@H]12 | 0.79 µM | > 2 µM | 0.059 µM | – | –
2 | C=C(C)[C@@H]1CC[C@]2(C(=O)O)CC[C@]3(C)[C@H](CC[C@@H]4[C@@]5(C)CC=C(c6ccc(C(=O)NS(=O)(=O)C(C)C)cc6)C(C)(C)[C@@H]5CC[C@]43C)[C@@H]12 | 8.68 µM | 0.937 µM | 0.124 µM | 0.275 µM | 2.2
3 | C=C(C)[C@@H]1CC[C@]2(C(=O)O)CC[C@]3(C)[C@H](CC[C@@H]4[C@@]5(C)CC=C(c6ccc(CCC(=O)O)cc6)C(C)(C)[C@@H]5CC[C@]43C)[C@@H]12 | 6.55 µM | – | 0.682 µM | – | –
4 | C=C(C)[C@@H]1CC[C@]2(CO)CC[C@]3(C)[C@H](CC[C@@H]4[C@@]5(C)CC=C(c6ccc([N+](=O)[O-])cc6)C(C)(C)[C@@H]5CC[C@]43C)[C@@H]12 | 20 µM | > 4 µM | > 4 µM | > 4 µM | –
5 | C=C(C)[C@@H]1CC[C@]2(C(=O)O)CC[C@]3(C)[C@H](CC[C@@H]4[C@@]5(C)CC[C@H](OC(=O)CC(C)(C)CC(=O)O)C(C)(C)[C@@H]5CC[C@]43C)[C@@H]12 | 4.25 µM | – | 0.004 µM | 0.909 µM | 227
6 | C=C(C)[C@@H]1CC[C@]2(CO)CC[C@]3(C)[C@H](CC[C@@H]4[C@@]5(C)CC=C(c6ccc(C(=O)O)cc6Cl)C(C)(C)[C@@H]5CC[C@]43C)[C@@H]12 | 17.3 µM | > 4 µM | 0.114 µM | 0.117 µM | 1
7 | C=C(C)[C@@H]1CC[C@]2(C(=O)O)CC[C@]3(C)[C@H](CC[C@@H]4[C@@]5(C)CC=C(c6ccc(O)cc6)C(C)(C)[C@@H]5CC[C@]43C)[C@@H]12 | 13.4 µM | – | 0.308 µM | > 8 µM | –
8 | C=C(C)[C@@H]1CC[C@]2(C(=O)O)CC[C@]3(C)[C@H](CC[C@@H]4[C@@]5(C)CC=C(c6cccc(C(=O)O)c6)C(C)(C)[C@@H]5CC[C@]43C)[C@@H]12 | 13.8 µM | – | > 8 µM | – | –
9 | C=C(C)[C@@H]1CC[C@]2(C(=O)O)CC[C@]3(C)[C@H](CC[C@@H]4[C@@]5(C)CC=C(c6cccc(-c7nn[nH]n7)c6)C(C)(C)[C@@H]5CC[C@]43C)[C@@H]12 | 10.5 µM | – | > 8 µM | – | –
10 | C=C(C)[C@@H]1CC[C@]2(C(=O)O)CC[C@]3(C)[C@H](CC[C@@H]4[C@@]5(C)CC=C(c6ccc(C#N)cc6)C(C)(C)[C@@H]5CC[C@]43C)[C@@H]12 | 4.45 µM | – | > 1.6 µM | – | –
11 | C=C(C)[C@@H]1CC[C@]2(CO)CC[C@]3(C)[C@H](CC[C@@H]4[C@@]5(C)CC=C(c6ccc(C(=O)O)cn6)C(C)(C)[C@@H]5CC[C@]43C)[C@@H]12 | 4.3 µM | > 2 µM | 0.503 µM | – | –
12 | C=C(C)[C@@H]1CC[C@]2(C(=O)O)CC[C@]3(C)[C@H](CC[C@@H]4[C@@]5(C)CC=C(c6ccc(/C=C/C(=O)O)cc6)C(C)(C)[C@@H]5CC[C@]43C)[C@@H]12 | > 8 µM | – | 0.734 µM | – | –
13 | C=C(C)[C@@H]1CC[C@]2(C(=O)O)CC[C@]3(C)[C@H](CC[C@@H]4[C@@]5(C)CC=C(c6ccc(-c7cnc8ccccc8c7C(=O)O)cc6)C(C)(C)[C@@H]5CC[C@]43C)[C@@H]12 | 15.9 µM | – | 3.6 µM | – | –
14 | C=C(C)[C@@H]1CC[C@]2(C(=O)O)CC[C@]3(C)[C@H](CC[C@@H]4[C@@]5(C)CC=C(c6ccccc6CCC(=O)O)C(C)(C)[C@@H]5CC[C@]43C)[C@@H]12 | 5.03 µM | – | 3.2 µM | – | –
15 | C=C(C)[C@@H]1CC[C@]2(C(=O)O)CC[C@]3(C)[C@H](CC[C@@H]4[C@@]5(C)CC=C(c6cccc(CCC(=O)O)c6)C(C)(C)[C@@H]5CC[C@]43C)[C@@H]12 | 1.83 µM | – | 0.571 µM | – | –
16 | C=C(C)[C@@H]1CC[C@]2(C(=O)O)CC[C@]3(C)[C@H](CC[C@@H]4[C@@]5(C)CC=C(c6ccc(C7(C(=O)O)CC7)cc6)C(C)(C)[C@@H]5CC[C@]43C)[C@@H]12 | > 8 µM | 0.633 µM | 0.215 µM | – | –
17 | C=C(C)[C@@H]1CC[C@]2(C(=O)O)CC[C@]3(C)[C@H](CC[C@@H]4[C@@]5(C)CC=C(c6ccc(S(C)(=O)=O)cc6)C(C)(C)[C@@H]5CC[C@]43C)[C@@H]12 | 9.72 µM | – | 2.52 µM | – | –
18 | C=C(C)[C@@H]1CC[C@]2(C(=O)O)CC[C@]3(C)[C@H](CC[C@@H]4[C@@]5(C)CC=C(c6cccc(NS(C)(=O)=O)c6)C(C)(C)[C@@H]5CC[C@]43C)[C@@H]12 | 12.7 µM | – | 2.13 µM | – | –
19 | C=C(C)[C@@H]1CC[C@]2(CO)CC[C@]3(C)[C@H](CC[C@@H]4[C@@]5(C)CC=C(c6cc(C(=O)O)[nH]n6)C(C)(C)[C@@H]5CC[C@]43C)[C@@H]12 | 0.57 µM | 0.348 µM | 0.061 µM | – | –
20 | C=C(C)[C@@H]1CC[C@]2(C(=O)O)CC[C@]3(C)[C@H](CC[C@@H]4[C@@]5(C)CC=C(c6cccc(S(=O)(=O)NC)c6)C(C)(C)[C@@H]5CC[C@]43C)[C@@H]12 | 13 µM | – | 1.23 µM | – | –
21 | C=C(C)[C@@H]1CC[C@]2(CO)CC[C@]3(C)[C@H](CC[C@@H]4[C@@]5(C)CC=C(c6ccc(C(=O)O)c(C(=O)O)c6)C(C)(C)[C@@H]5CC[C@]43C)[C@@H]12 | > 20 µM | 0.212 µM | 0.038 µM | – | –
22 | C=C(C)[C@@H]1CC[C@]2(C(=O)O)CC[C@]3(C)[C@H](CC[C@@H]4[C@@]5(C)CC=C(c6ccc(C(=O)NC)cc6)C(C)(C)[C@@H]5CC[C@]43C)[C@@H]12 | 22.6 µM | – | 1.6 µM | – | –
23 | C=C(C)[C@@H]1CC[C@]2(CO)CC[C@]3(C)[C@H](CC[C@@H]4[C@@]5(C)CC=C(c6ccc(NS(C)(=O)=O)cc6)C(C)(C)[C@@H]5CC[C@]43C)[C@@H]12 | 8.82 µM | > 1.6 µM | > 1.6 µM | > 1.6 µM | –
24 | C=C(C)[C@@H]1CC[C@]2(CO)CC[C@]3(C)[C@H](CC[C@@H]4[C@@]5(C)CC=C(c6ccc(-c7nn[nH]n7)cc6)C(C)(C)[C@@H]5CC[C@]43C)[C@@H]12 | 34.3 µM | > 4 µM | 3.4 µM | – | –
25 | C=C(C)[C@@H]1CC[C@]2(C(=O)O)CC[C@]3(C)[C@H](CC[C@@H]4[C@@]5(C)CC=C(c6ccn(CC(=O)O)n6)C(C)(C)[C@@H]5CC[C@]43C)[C@@H]12 | > 30 µM | > 3 µM | 0.167 µM | – | –
26 | C=C(C)[C@@H]1CC[C@]2(C(=O)O)CC[C@]3(C)[C@H](CC[C@@H]4[C@@]5(C)CC=C(c6ccc(NC(=O)CCC(=O)O)cc6)C(C)(C)[C@@H]5CC[C@]43C)[C@@H]12 | 7.73 µM | 1.57 µM | 1.47 µM | – | –
27 | C=C(C)[C@@H]1CC[C@]2(CO)CC[C@]3(C)[C@H](CC[C@@H]4[C@@]5(C)CC=C(c6csc(C(=O)O)c6)C(C)(C)[C@@H]5CC[C@]43C)[C@@H]12 | 14.1 µM | > 2 µM | 0.38 µM | – | –
